From PMC8217266 (Clinical Pharmacology and Therapeutics, 2021)

What was measured:
[1] = test system: transporters at major organ sites; experiment: Prediction of transporter-mediated inhibition / DDI potential; design: species or system human; settings: of 11 transporters; FDA criteria
human OATP2B1 = target: T1, human OATP2B1 (Homo sapiens, UniProt O94956); experiment: cell-based; settings: IC50 OATP2B1, experimental, mean ± SD; stable cells; substrate ES
T1 sequence (O94956 1-709): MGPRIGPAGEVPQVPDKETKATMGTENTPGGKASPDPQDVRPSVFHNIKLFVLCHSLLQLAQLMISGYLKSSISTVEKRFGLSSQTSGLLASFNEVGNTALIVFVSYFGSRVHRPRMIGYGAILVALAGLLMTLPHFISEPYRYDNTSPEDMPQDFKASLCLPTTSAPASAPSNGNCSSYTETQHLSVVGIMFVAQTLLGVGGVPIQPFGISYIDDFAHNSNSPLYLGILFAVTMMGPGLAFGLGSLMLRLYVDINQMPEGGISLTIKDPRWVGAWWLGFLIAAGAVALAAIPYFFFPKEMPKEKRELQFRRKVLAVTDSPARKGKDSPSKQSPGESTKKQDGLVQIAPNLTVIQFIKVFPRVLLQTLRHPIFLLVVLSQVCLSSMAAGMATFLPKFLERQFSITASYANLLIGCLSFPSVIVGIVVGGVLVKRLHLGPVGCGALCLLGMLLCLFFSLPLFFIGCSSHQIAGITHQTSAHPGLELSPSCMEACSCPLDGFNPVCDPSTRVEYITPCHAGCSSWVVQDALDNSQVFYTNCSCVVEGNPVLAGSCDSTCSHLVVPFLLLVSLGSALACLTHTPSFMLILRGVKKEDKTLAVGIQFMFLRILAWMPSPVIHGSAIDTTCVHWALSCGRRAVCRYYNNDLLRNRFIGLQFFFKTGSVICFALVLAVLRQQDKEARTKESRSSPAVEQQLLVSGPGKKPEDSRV

human OCT1 = target: T2, human OCT1 (Homo sapiens, UniProt O15245); experiment: cell-based
T2 sequence (O15245 1-554): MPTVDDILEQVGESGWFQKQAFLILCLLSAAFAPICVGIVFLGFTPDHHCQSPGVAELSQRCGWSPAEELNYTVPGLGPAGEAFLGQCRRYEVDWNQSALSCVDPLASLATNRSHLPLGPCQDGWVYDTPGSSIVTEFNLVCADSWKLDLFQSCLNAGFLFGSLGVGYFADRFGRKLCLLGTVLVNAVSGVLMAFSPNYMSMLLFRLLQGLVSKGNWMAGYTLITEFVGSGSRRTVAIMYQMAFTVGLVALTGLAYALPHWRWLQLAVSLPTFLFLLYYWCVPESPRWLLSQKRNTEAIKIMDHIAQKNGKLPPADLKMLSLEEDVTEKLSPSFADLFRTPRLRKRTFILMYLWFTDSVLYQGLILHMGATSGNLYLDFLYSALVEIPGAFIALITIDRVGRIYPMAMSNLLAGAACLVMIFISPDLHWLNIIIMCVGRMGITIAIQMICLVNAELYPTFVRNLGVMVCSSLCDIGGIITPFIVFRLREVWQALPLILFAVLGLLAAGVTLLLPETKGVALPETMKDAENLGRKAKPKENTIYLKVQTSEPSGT

human MATE2 = human MATE2 (Homo sapiens, UniProt Q86VL8); experiment: cell-based
Chain of human MATE2 (Q86VL8 1-566 isoform Q86VL8-3): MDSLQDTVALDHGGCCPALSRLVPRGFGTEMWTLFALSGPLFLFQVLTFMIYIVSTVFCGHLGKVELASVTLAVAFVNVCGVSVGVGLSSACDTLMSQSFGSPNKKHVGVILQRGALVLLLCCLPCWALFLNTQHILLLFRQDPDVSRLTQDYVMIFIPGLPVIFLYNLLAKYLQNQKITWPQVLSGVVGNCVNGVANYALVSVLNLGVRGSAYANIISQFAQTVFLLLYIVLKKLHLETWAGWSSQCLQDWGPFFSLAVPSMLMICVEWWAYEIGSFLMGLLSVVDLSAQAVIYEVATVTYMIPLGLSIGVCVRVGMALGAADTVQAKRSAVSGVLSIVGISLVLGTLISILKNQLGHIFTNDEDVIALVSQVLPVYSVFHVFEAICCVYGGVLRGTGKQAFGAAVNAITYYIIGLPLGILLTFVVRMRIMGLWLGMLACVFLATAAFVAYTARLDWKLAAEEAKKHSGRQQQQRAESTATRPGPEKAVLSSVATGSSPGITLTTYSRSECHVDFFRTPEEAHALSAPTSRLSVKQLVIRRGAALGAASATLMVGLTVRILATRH

human OAT1 = target: T3, human OAT1 (Homo sapiens, UniProt Q4U2R8); experiment: cell-based
T3 sequence (Q4U2R8 1-563): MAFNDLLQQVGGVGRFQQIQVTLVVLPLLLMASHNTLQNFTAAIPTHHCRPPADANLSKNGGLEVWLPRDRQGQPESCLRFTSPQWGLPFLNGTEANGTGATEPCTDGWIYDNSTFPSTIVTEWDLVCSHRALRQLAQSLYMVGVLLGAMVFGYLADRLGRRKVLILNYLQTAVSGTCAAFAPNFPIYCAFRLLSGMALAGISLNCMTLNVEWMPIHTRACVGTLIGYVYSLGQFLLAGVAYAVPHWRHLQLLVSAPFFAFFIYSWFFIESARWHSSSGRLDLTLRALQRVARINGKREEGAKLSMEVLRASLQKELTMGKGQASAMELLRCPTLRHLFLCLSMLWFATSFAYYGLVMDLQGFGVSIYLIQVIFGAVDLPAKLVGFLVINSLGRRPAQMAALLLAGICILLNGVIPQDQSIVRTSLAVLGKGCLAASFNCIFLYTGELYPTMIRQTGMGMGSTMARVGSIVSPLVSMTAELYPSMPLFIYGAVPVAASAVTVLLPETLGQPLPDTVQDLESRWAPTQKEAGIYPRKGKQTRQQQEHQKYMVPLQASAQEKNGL

BCRP = target: T4, BCRP (Homo sapiens, UniProt Q9UNQ0); experiment: biochemical
T4 sequence (Q9UNQ0 1-655): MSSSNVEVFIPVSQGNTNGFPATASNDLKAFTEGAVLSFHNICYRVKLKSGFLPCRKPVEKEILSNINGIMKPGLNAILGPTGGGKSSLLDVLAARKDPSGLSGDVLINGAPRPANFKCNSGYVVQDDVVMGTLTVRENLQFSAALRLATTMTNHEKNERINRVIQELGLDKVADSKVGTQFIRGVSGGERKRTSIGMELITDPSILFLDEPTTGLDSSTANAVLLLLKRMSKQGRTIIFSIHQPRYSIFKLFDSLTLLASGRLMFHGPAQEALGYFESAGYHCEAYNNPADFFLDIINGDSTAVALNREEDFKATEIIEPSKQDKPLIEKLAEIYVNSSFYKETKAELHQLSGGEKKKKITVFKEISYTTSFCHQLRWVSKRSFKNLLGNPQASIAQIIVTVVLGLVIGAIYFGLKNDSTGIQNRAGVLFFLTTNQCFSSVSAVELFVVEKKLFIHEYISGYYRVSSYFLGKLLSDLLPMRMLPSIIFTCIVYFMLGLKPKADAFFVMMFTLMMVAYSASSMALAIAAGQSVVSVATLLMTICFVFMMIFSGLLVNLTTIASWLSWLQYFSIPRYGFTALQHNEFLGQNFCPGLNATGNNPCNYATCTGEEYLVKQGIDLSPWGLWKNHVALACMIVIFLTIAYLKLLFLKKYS

Row | Structure (SMILES) | No. of transporters at major organ sites inhibited at clinical concentrations [1] | IC50 (human OATP2B1) [µM] | IC50 (human OCT1) [µM] | IC50 (human MATE2) [µM] | IC50 (human OAT1) [µM] | IC50 (BCRP) [µM]
1 | CCCc1nn(C)c2c(=O)[nH]c(-c3cc(S(=O)(=O)N4CCN(C)CC4)ccc3OCC)nc12 [Sildenafil] | 4 | 39 ± 12.8 | 19.8 ± 6.4 | 14.4 ± 1.3 | > 100 | 3.1 ± 2.5
2 | CCOC(=O)c1c(CSc2ccccc2)n(C)c2cc(Br)c(O)c(CN(C)C)c12 [Umifenovir (Arbidol), Umifenovir] | 6 | 3.5 ± 1.2 | 1.2 ± 0.1 | 4.1 ± 1.6 | > 100 | > 100
3 | N#CC[C@H](C1CCCC1)n1cc(-c2ncnc3[nH]ccc23)cn1 [Ruxolitinib] | 1 | 17.4 ± 8.6 | 9.7 ± 4.3 | 3.7 ± 2.3 | > 100 | > 100
4 | CC(C)CN(C[C@@H](O)[C@H](Cc1ccccc1)NC(=O)O[C@H]1CO[C@H]2OCC[C@H]21)S(=O)(=O)c1ccc(N)cc1 [Darunavir] | 5 | 30.6 ± 7.7 |  | 30.7 ± 20.2 | 95 | > 100
5 | CCC(CC)COC(=O)[C@H](C)N[P@](=O)(OC[C@H]1O[C@@](C#N)(c2ccc3c(N)ncnn23)[C@H](O)[C@@H]1O)Oc1ccccc1 [Remdesivir] | 4 | 3.5 ± 0.4 | 10.1 ± 0.01 | 15.2 ± 9.7 | > 100 | 25 ± 6
